Test results reported in ChEMBL document CHEMBL4706668, “Minimization of apoptosis-inducing CPP-Bim peptide” (Bioorg Med Chem Lett, 2021).
Each block holds one molecule with its values, some of them ahead of it. Calls of active or inactive are those of the source. No cut-off for these calls is given here. Residues, ends and D or L forms follow the SMILES beside them.

Legend:
[1] = system: CHO; test: Induction of apoptosis in CHO cells at 10 uM incubated for 3 hrs followed by compound washout by NucView-488 staining based fluorescence microscopy; type: cell-based, Cricetulus griseus; settings: chinese hamster
[2] = system: HeLa; test: Induction of apoptosis in human HeLa cells at 10 uM incubated for 3 hrs followed by compound washout by NucView-488 staining based fluorescence microscopy; type: functional, cell-based
[3] = Drug distribution in cytosol of human HeLa cells at 2 uM incubated for 3 hrs followed by compound washout and subsequent irradiation with mercury lamp at 10J/cm2 using Alexa Fluor-546 labeled compound by fluorescence microscopy; type: ADME, subcellular
[4] = system: HeLa; test: Induction of apoptosis in human HeLa cells at 10 uM incubated for 3 hrs followed by compound washout by NucView-488 staining based fluorescence microscopy relative to control; type: functional
[5] = system: CHO; test: Induction of apoptosis in CHO cells at 10 uM incubated for 3 hrs followed by compound washout by NucView-488 staining based fluorescence microscopy relative to control; type: cell-based, Cricetulus griseus; settings: chinese hamster
[6] = system: HeLa; test: Induction of apoptosis in human HeLa cells at 2 uM incubated for 3 hrs followed by compound washout and subsequent irradiation with mercury lamp at 10J/cm2 and further incubated for 3 hrs using Alexa Fluor-546 labeled compound by fluorescence microscopy; type: functional, cell-based

Molecule: CC[C@H](C)[C@H](NC(=O)[C@H](CCCNC(=N)N)NC(=O)[C@H](CCCNC(=N)N)NC(=O)[C@H](CC(C)C)NC(=O)[C@H](CCC(=O)O)NC(=O)[C@H](CS)NC(=O)[C@H](C)NC(=O)[C@@H](NC(=O)[C@H](Cc1c[nH]c2ccccc12)NC(=O)[C@@H](NC(=O)[C@H](CCCNC(=N)N)NC(=O)[C@H](CCCNC(=N)N)NC(=O)[C@H](CCCNC(=N)N)NC(=O)[C@@H](N)CCCNC(=N)N)[C@@H](C)CC)[C@@H](C)CC)C(=O)NCC(=O)N[C@@H](CC(=O)O)C(=O)N[C@@H](CCC(=O)O)C(=O)N[C@@H](Cc1ccccc1)C(=O)N[C@@H](CC(N)=O)C(=O)N[C@@H](C)C(=O)N[C@@H](Cc1ccc(O)cc1)C(=O)N[C@@H](Cc1ccc(O)cc1)C(=O)NCC(=O)N[C@@H](CS)C(=O)O (H-RRRRIWIACELRRIGDEFNAYYGC-OH)
Activity [1]: Not Active
Activity [2]: inactive

Molecule: H-RKKRRQRRRAQELRRIGDEFNAYYARGC-OH
Activity [2]: inactive

Molecule: H-RKKRRQRRREIWIAQELRRIGC-OH
Activity [2]: inactive

Molecule: H-RKKRRQRRREIWIAQELRRIGDEFGC-OH
Activity [2]: inactive

Molecule: H-RKKRRQRRREIWIAQELRRIGDEFNAGC-OH
Activity [2]: inactive

Drug uptake [3]: Active
Molecule: H-RKKRRQRRREIWIAQELRRIGDEFNAYYARGC-OH

Molecule: H-RKKRRQRRREIWIAQELRRIGDEFNAYYGC-OH
Activity [4]: 79%
Activity [5]: 44%

Molecule: H-RKKRRQRRREIWIAQELRRIGDGC-OH
Activity [2]: inactive

Molecule: H-RKKRRQRRRIAQELRRIGDEFNAYYARGC-OH
Activity [2]: inactive

Molecule: H-RKKRRQRRRIWIAQELRRIGDEFNAYYARGC-OH
Activity [4]: 85%
Activity [5]: 31%

Drug uptake [3]: Active
Molecule: H-RKKRRQRRRIWIAQELRRIGDEFNAYYGC-OH
Activity [6]: Active

Molecule: H-RKKRRQRRRWGC-OH
Activity [6]: inactive

Molecule: H-RKKRRQRRRWIAQELRRIGDEFNAYYARGC-OH
Activity [2]: Active

Molecule: H-RKKRRQRRRWIAQELRRIGDGC-OH
Activity [2]: Active

Molecule: H-RRIWIAQELRRIGDEFNAYYGC-OH
Activity [1]: Not Active
Activity [2]: inactive

Molecule: H-RRRRRRIWIAQELRRIGDEFNAYYGC-OH
Activity [1]: Not Active
Activity [2]: inactive

Drug uptake [3]: Active
Molecule: H-RRRRRRRRIWIAQELRRIGDEFNAYYGC-OH
Activity [6]: Active
Activity [4]: 70%
Activity [2]: Active
